Measured values as given in PubChem BioAssay (NCI).
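All cell lines were grown in 96-well plates and treated with compound for 48 hours. The concentration for 50% growth inhibition is given as GI50. At the TGI there is no net growth.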

Tests used:
Assay in all cases: NCI tumour cell line growth inhibition, 48 h
[1] = system: UACC-62 melanoma
[2] = system: HT29 colon
[3] = system: SR leukemia
[4] = system: RXF 393 renal
[5] = system: SF-539 CNS
[6] = system: KM12 colon
[7] = system: NCI-H460 lung
[8] = system: NCI/ADR-RES ovarian
[9] = system: NCI-H226 lung
[10] = system: UO-31 renal

Cc1ccc2c(=O)cc(-c3ccc(Cl)s3)[nH]c2n1
TGI [1]: > 100 µM
TGI [2]: > 52.4 µM
TGI [3]: > 76.2 µM
TGI [4]: > 25.7 µM
TGI [5]: 3.93 µM
TGI [6]: > 100 µM
TGI [7]: > 100 µM
TGI [8]: > 100 µM
TGI [9]: 7.79 µM
TGI [10]: 0.301 µM

Nc1ccc(S(=O)(=O)c2ccc(NCN3C(=O)NC(=O)C(=O)C3=O)cc2)cc1
TGI [1]: > 100 µM
TGI [2]: > 100 µM
TGI [3]: > 100 µM
TGI [4]: > 100 µM
TGI [6]: > 100 µM
TGI [7]: > 100 µM
TGI [8]: > 100 µM
TGI [9]: > 100 µM
TGI [10]: > 100 µM

Cc1csc(NC23CC4CC(CC(C4)C2)C3)[n+]1C(P(=O)([O-])O)P(=O)(O)O (configuration not stated)
TGI [1]: > 100 µM
TGI [2]: > 100 µM
TGI [3]: > 100 µM
TGI [4]: > 100 µM
TGI [5]: > 100 µM
TGI [6]: > 100 µM
TGI [7]: > 100 µM
TGI [8]: > 100 µM
TGI [9]: > 100 µM
TGI [10]: > 100 µM

CC(=C(c1ccccc1)c1ccccc1)N1C(=O)CC(=O)N1C
TGI [1]: 83.6 µM
TGI [2]: > 100 µM
TGI [4]: 61.6 µM
TGI [5]: > 100 µM
TGI [6]: > 100 µM
TGI [7]: > 100 µM
TGI [8]: > 100 µM
TGI [9]: > 100 µM
TGI [10]: 31.5 µM

NS(=O)(=O)c1ccc(/C=C/c2ccc(F)cc2)cc1
GI50 [2]: 29.4 µM
TGI [2]: > 100 µM
GI50 [3]: 10.5 µM
TGI [3]: > 100 µM
TGI [4]: 46.8 µM
GI50 [5]: 29.1 µM
TGI [5]: 96.1 µM
GI50 [6]: 16.3 µM
TGI [6]: 67 µM
TGI [7]: > 100 µM
TGI [8]: > 100 µM
GI50 [9]: 7.97 µM
TGI [9]: 27 µM
TGI [10]: 61.1 µM

COc1cc2ccc(=O)oc2cc1O
TGI [1]: 161 µM
TGI [2]: > 625 µM
TGI [4]: > 569 µM
TGI [5]: 201 µM
TGI [6]: > 625 µM
TGI [7]: 139 µM
TGI [8]: 277 µM
TGI [9]: 283 µM
TGI [10]: 183 µM

O=c1cc(N2CCCC2)[nH]c(=O)n1Cc1ccccc1
TGI [2]: > 100 µM
TGI [3]: > 100 µM
TGI [5]: > 100 µM
TGI [6]: > 100 µM
TGI [7]: > 100 µM
TGI [8]: > 100 µM
TGI [9]: > 100 µM

CCOC(=O)CCC(NC(=O)OCc1ccccc1)C(=O)NC(CCC(=O)OCC)C(=O)NC(CCC(=O)OCC)C(=O)NC(CCC(=O)OCC)C(=O)NC(CCC(=O)OCC)C(=O)NC(CCC(=O)OCC)C(=O)NC(CCC(=O)OCC)C(=O)OCC (configuration not stated)
TGI [1]: > 100 µM
TGI [2]: > 100 µM
TGI [3]: > 100 µM
TGI [7]: > 100 µM
TGI [9]: > 100 µM
TGI [10]: > 100 µM

CC(=O)N1CC(C)(C)c2c(C)c(O)c(C)c(C)c21
TGI [1]: > 100 µM
TGI [2]: > 100 µM
TGI [4]: > 100 µM
TGI [5]: > 100 µM
TGI [6]: > 100 µM
TGI [7]: > 100 µM
TGI [8]: > 100 µM
TGI [9]: > 100 µM
TGI [10]: > 100 µM

O=[N+]([O-])c1ccc2sc(C=Nc3cnccn3)cc2c1
TGI [1]: 53.1 µM
TGI [2]: > 100 µM
TGI [3]: 45.5 µM
TGI [4]: 33.5 µM
TGI [5]: > 100 µM
TGI [6]: > 100 µM
TGI [7]: > 100 µM
TGI [8]: > 100 µM
TGI [10]: > 100 µM

NCCCN(CCCN(C(=O)Nc1ccccc1)c1ccccc1)C(=O)Nc1ccccc1
TGI [1]: 58 µM
TGI [2]: > 100 µM
TGI [3]: > 100 µM
TGI [4]: 86.2 µM
TGI [7]: 94.8 µM
TGI [8]: > 100 µM
TGI [9]: > 100 µM
TGI [10]: 65.8 µM

Cc1ccc(OCC2OC(n3cnc4nc(N)nc(Cl)c43)CC2Oc2ccc(C)cc2)cc1 (configuration not stated)
TGI [1]: > 100 µM
TGI [2]: 71.1 µM
TGI [3]: > 100 µM
TGI [5]: > 100 µM
TGI [6]: 44 µM
TGI [7]: 97 µM
TGI [8]: 47.2 µM
TGI [9]: 47.5 µM

OC1(c2ccccc2)CCN(Cc2c[nH]c3ccccc23)CC1
TGI [1]: > 100 µM
TGI [2]: > 100 µM
TGI [4]: > 100 µM
TGI [5]: > 100 µM
TGI [6]: > 100 µM
TGI [7]: > 100 µM
TGI [8]: > 100 µM
TGI [9]: > 100 µM
TGI [10]: > 100 µM

COc1c(O)c(C=O)c2c(O)c(-c3c(C)cc4c(C(C)C)c(OC)c(O)c(C=O)c4c3O)c(C)cc2c1C(C)C
TGI [1]: 29 µM
TGI [2]: 15.3 µM
TGI [3]: 22.7 µM
TGI [4]: 5.75 µM
TGI [5]: 12.8 µM
TGI [6]: 16 µM
TGI [7]: 16.1 µM
TGI [9]: 9.69 µM
TGI [10]: 11.1 µM

COc1ccc(CC(N)c2ccc(OC)cc2)cc1 (configuration not stated)
TGI [1]: > 100 µM
TGI [2]: > 100 µM
TGI [4]: > 100 µM
TGI [6]: > 100 µM
TGI [7]: > 100 µM
TGI [8]: > 100 µM
TGI [9]: > 100 µM
TGI [10]: > 100 µM

CCNCCCn1c2c(c3ccc(Cl)cc3c1=O)C(=O)c1cc(OC)cnc1-2
GI50 [1]: 0.532 µM
TGI [1]: 21.4 µM
GI50 [2]: 0.327 µM
TGI [2]: 2.03 µM
GI50 [4]: 1.03 µM
TGI [4]: 2.43 µM
GI50 [5]: 0.506 µM
TGI [5]: 1.71 µM
GI50 [6]: 0.755 µM
TGI [6]: 2.26 µM
GI50 [8]: 0.282 µM
TGI [8]: 2.53 µM
GI50 [9]: 1.4 µM
TGI [9]: 5.04 µM
GI50 [10]: 0.543 µM
TGI [10]: 2.37 µM

CC1(C)CC(O)C(C)(C)[C@@H](O)C1 (some centres not stated)
TGI [1]: > 100 µM
TGI [2]: > 100 µM
TGI [4]: > 100 µM
TGI [5]: > 100 µM
TGI [6]: > 100 µM
TGI [7]: > 100 µM
TGI [8]: > 100 µM
TGI [9]: > 100 µM
TGI [10]: > 100 µM

OCC(O)C(O)C(O)C(O)c1nc2ccc(Cl)cc2[nH]1 (configuration not stated)
TGI [1]: > 100 µM
TGI [2]: > 100 µM
TGI [4]: > 100 µM
TGI [5]: > 100 µM
TGI [6]: > 100 µM
TGI [7]: > 100 µM
TGI [8]: > 100 µM
TGI [9]: > 100 µM
TGI [10]: > 100 µM

CO/N=C1\CC(NC(=O)CNC(=O)OC(C)(C)C)c2ccsc21 (configuration not stated)
TGI [1]: > 100 µM
TGI [2]: > 100 µM
TGI [3]: > 100 µM
TGI [4]: > 100 µM
TGI [5]: > 100 µM
TGI [7]: > 100 µM
TGI [8]: > 100 µM
TGI [9]: > 100 µM
TGI [10]: > 100 µM

COC(=O)C1(Cc2ccc3c(c2)CCC3)Cc2ccccc2C1O (configuration not stated)
TGI [1]: 28.1 µM
TGI [2]: 31.6 µM
TGI [3]: 75.9 µM
TGI [5]: 33.1 µM
TGI [6]: 47.6 µM
TGI [7]: 38.1 µM
TGI [8]: 60.1 µM
TGI [9]: 36.6 µM
TGI [10]: 29.2 µM

CC(C)=NN/C(=N\S(=O)(=O)c1ccc(Oc2cccc(Cl)c2C#N)cc1)Nc1ccc(Cl)cc1
TGI [1]: > 100 µM
TGI [2]: > 100 µM
TGI [6]: > 100 µM
TGI [7]: > 100 µM
TGI [8]: > 100 µM
TGI [9]: > 100 µM
TGI [10]: > 100 µM

C[N+](C)(C)c1ccc(C(N)C(=O)O)cc1 (configuration not stated)
TGI [1]: > 100 µM
TGI [2]: > 100 µM
TGI [3]: > 100 µM
TGI [4]: > 100 µM
TGI [6]: > 100 µM
TGI [7]: > 100 µM
TGI [8]: > 100 µM
TGI [9]: > 100 µM
TGI [10]: > 100 µM
